# Laboratory results published in article PMC8319832, “Fine-Tuning of Alkaline Residues on the Hydrophilic Face Provides a Non-toxic Cationic α-Helical Antimicrobial Peptide Against Antibiotic-Resistant ESKAPE Pathogens” (Frontiers in Microbiology, 2021).
# Where a SMILES comes first, the peptide text is derived from it.
# What was measured:
# [1] = tested on: K. pneumoniae ATCC 700603; assay: MIC, broth dilution; type: cell-based, Klebsiella pneumoniae; details: CLSI broth dilution, MHB, 37°C, 20 h, OD630, at least three repeats; standard strain
# Procedure: (§1) All experiments were repeated at least three times.
# (§2) To study the influence of physiological ions on the antimicrobial activities of the peptides, The MICs of the peptides were also determined against the standard bacterial strains cultured in MHB containing various salts at their physiological concentrations (150 mM NaCl, 4.5 mM KCl, 1 mM MgCl2, 2 mM CaCl2, 6 μM NH4HCO3, and 4 μM FeCl3) ([Ma et al., 2016]).
# [2] = tested on: ESBL-producing E. coli, CRE- and MDR P. aeruginosa, CRE- and MDR A. baumannii; assay: MIC, summary over resistant gram-negative strains; type: cell-based; details: summary of Table 4
# Excerpt: as §1
# A. baumannii 13012 = assay: MIC, broth dilution; type: cell-based, Acinetobacter baumannii; details: CLSI broth dilution, MHB, 37°C, 20 h, OD630, at least three repeats; clinical isolate, CRE, MDR
# Excerpt: as §1
# A. baumannii 13079 = assay: MIC, broth dilution; type: cell-based, Acinetobacter baumannii; details: CLSI broth dilution, MHB, 37°C, 20 h, OD630, at least three repeats; clinical isolate, CRE, MDR
# Excerpt: as §1
# A. baumannii 9068 = assay: MIC, broth dilution; type: cell-based, Acinetobacter baumannii; details: CLSI broth dilution, MHB, 37°C, 20 h, OD630, at least three repeats; clinical isolate, CRE, MDR
# Excerpt: as §1
# A. baumannii 906 = assay: MIC, broth dilution; type: cell-based, Acinetobacter baumannii; details: CLSI broth dilution, MHB, 37°C, 20 h, OD630, at least three repeats; clinical isolate, CRE, MDR
# Excerpt: as §1
# S. epidermidis 888 = assay: MIC, broth dilution; type: cell-based; details: CLSI broth dilution, MHB, 37°C, 20 h, OD630, at least three repeats; clinical isolate
# Excerpt: as §1
# S. epidermidis 9092 = assay: MIC, broth dilution; type: cell-based; details: CLSI broth dilution, MHB, 37°C, 20 h, OD630, at least three repeats; clinical isolate, MRSE
# Excerpt: as §1
# E. faecalis 901 = assay: MIC, broth dilution; type: cell-based; details: CLSI broth dilution, MHB, 37°C, 20 h, OD630, at least three repeats; clinical isolate
# Excerpt: as §1
# S. epidermidis 6943 = assay: MIC, broth dilution; type: cell-based; details: CLSI broth dilution, MHB, 37°C, 20 h, OD630, at least three repeats; clinical isolate, MRSE
# Excerpt: as §1
# E. coli ATCC25922 = assay: MIC, broth dilution; type: cell-based, Escherichia coli; details: CLSI broth dilution, MHB, 6.25 × 10^5 cfu per ml, 37°C, 20 h, OD630, at least three repeats
# K. pneumoniae 9126 = assay: MIC, broth dilution; type: cell-based, Klebsiella pneumoniae; details: CLSI broth dilution, MHB, 37°C, 20 h, OD630, at least three repeats; clinical isolate, CRE
# Excerpt: as §1
# P. aeruginosa 9042 = assay: MIC, broth dilution; type: cell-based, Pseudomonas aeruginosa; details: CLSI broth dilution, MHB, 37°C, 20 h, OD630, at least three repeats; clinical isolate
# Excerpt: as §1
# P. aeruginosa 9014 = assay: MIC, broth dilution; type: cell-based, Pseudomonas aeruginosa; details: CLSI broth dilution, MHB, 37°C, 20 h, OD630, at least three repeats; clinical isolate, CRE, MDR
# Excerpt: as §1
# P. aeruginosa ATCC 27853 = assay: MIC, broth dilution; type: cell-based, Pseudomonas aeruginosa; details: CLSI broth dilution, MHB, 37°C, 20 h, OD630, at least three repeats; standard strain
# Procedure: as §1, §2
# E. coli ATCC35218 = assay: MIC, broth dilution; type: cell-based, Escherichia coli; details: CLSI broth dilution, MHB, 37°C, 20 h, OD630, at least three repeats; standard strain
# Excerpt: as §1
# E. coli 2687 = assay: MIC, broth dilution; type: cell-based, Escherichia coli; details: CLSI broth dilution, MHB, 37°C, 20 h, OD630, at least three repeats; clinical isolate, ESBL
# Excerpt: as §1
# E. coli 2678 = assay: MIC, broth dilution; type: cell-based, Escherichia coli; details: CLSI broth dilution, MHB, 37°C, 20 h, OD630, at least three repeats; clinical isolate, ESBL
# Excerpt: as §1
# A. baumannii ATCC 19606 = assay: MIC, broth dilution; type: cell-based, Acinetobacter baumannii; details: CLSI broth dilution, MHB, 37°C, 20 h, OD630, at least three repeats; standard strain
# Procedure: as §1, §2
# [3] = tested on: human red blood cells (hRBCs); assay: Hemolytic activity determination; type: cell-based; details: hRBCs in 0.9% sodium chloride, 37°C, 1 h, OD540, 1% Triton X-100 = 100%, three independent experiments
# Procedure: Fresh human red blood cells (hRBCs) were collected in a sterile borosilicate glass tube covered with sodium citrate as the anticoagulating agent. […] Two-fold dilutions of the peptides were prepared in 0.9% sodium chloride to 100 μl and mixed with equal volumn of hRBC suspension to final peptide concentrations ranging from 12.5 to 200 μg ml^–1. After co-incubation at 37°C for 1 h, the samples were centrifuged (2,000 × g, 4°C, 20 min), and the supernatant (100 μl) was taken for optical density (OD540) measurements (Asample). The hRBCs assayed with 0.9% sodium chloride (Ablank) or 1% Triton X-100 (Apositive) were applied as 0% and 100% hemolysis, respectively. Three independent experiments were performed and the percent hemolysis was calculated according to the following equation ([Yin et al., 2012]; [Li et al., 2016]):
# Hemolysis(%)=100*(Asample-Ablank)/(Apositive-Ablank)
# S. aureus ATCC29213 = assay: MIC, broth dilution; type: cell-based, Staphylococcus aureus; details: CLSI broth dilution, MHB, 6.25 × 10^5 cfu per ml, 37°C, 20 h, OD630, at least three repeats
# Procedure: as §1, §2
# E. faecium 898 = assay: MIC, broth dilution; type: cell-based, Enterococcus faecium; details: CLSI broth dilution, MHB, 37°C, 20 h, OD630, at least three repeats; clinical isolate
# Excerpt: as §1
# S. aureus 1176 = assay: MIC, broth dilution; type: cell-based, Staphylococcus aureus; details: CLSI broth dilution, MHB, 37°C, 20 h, OD630, at least three repeats; clinical isolate
# Excerpt: as §1
# S. aureus 4188 = assay: MIC, broth dilution; type: cell-based, Staphylococcus aureus; details: CLSI broth dilution, MHB, 37°C, 20 h, OD630, at least three repeats; clinical isolate, penicillin-resistant
# Excerpt: as §1
# S. aureus 9124 = assay: MIC, broth dilution; type: cell-based, Staphylococcus aureus; details: CLSI broth dilution, MHB, 37°C, 20 h, OD630, at least three repeats; clinical isolate, MRSA
# Excerpt: as §1
# S. aureus ATCC 25923 = assay: MIC, broth dilution; type: cell-based, Staphylococcus aureus; details: CLSI broth dilution, MHB, 37°C, 20 h, OD630, at least three repeats; standard strain
# Excerpt: as §1
# E. faecalis ATCC 29212 = assay: MIC, broth dilution; type: cell-based; details: CLSI broth dilution, MHB, 37°C, 20 h, OD630, at least three repeats; standard strain
# Procedure: as §1, §2
# A. baumannii = details: summary of Table 4
# Procedure: The MIC determination was performed using the broth dilution method according to the guidelines of the Clinical and Laboratory Standards Institute (CLSI) ([Cao et al., 2012]; [Mourtada et al., 2019]). Briefly, the bacterial cells were incubated in Mueller-Hinton broth (MHB, Oxoid) at 37°C and 150 rpm, after overnight incubation, the bacteria were transferred to new broth until the exponential phase of growth (OD630 = 0.4). After that, the bacteria were diluted with fresh MHB to 160 μl and prepared in a sterile 96-well polypropylene plate to achieve a final concentration of 6.25 × 10^5 colony forming units (cfu) per ml. Two-fold dilutions of the peptides in 0.9% sodium chloride (40 μl) were added to each well to achieve the final peptide concentrations ranging from 1.25 to 80 μg ml^–1. […] All experiments were repeated at least three times.
smiles,measurement,setting,value
CC[C@H](C)[C@H](NC(=O)[C@H](CCCNC(=N)N)NC(=O)[C@H](CCCNC(=N)N)NC(=O)[C@@H](NC(=O)[C@@H](N)Cc1ccccc1)[C@@H](C)CC)C(=O)N[C@@H](C)C(=O)N[C@@H](CCCNC(=N)N)C(=O)N[C@@H](CC(C)C)C(=O)N[C@@H](CC(C)C)C(=O)N[C@@H](CCCNC(=N)N)C(=O)N[C@@H](CCCNC(=N)N)C(=O)N[C@H](C(=O)N[C@@H](Cc1ccccc1)C(N)=O)[C@@H](C)CC [BmKn2-7R] (H-FIRRIARLLRRIF-NH2),MIC,[1],5 µg/mL
same,"MIC against ESBL E. coli, CRE/MDR P. aeruginosa, CRE/MDR A. baumannii",[2],2.5–10 μg ml^–1
same,MIC,A. baumannii 13012,2.5 µg/mL
same,MIC,A. baumannii 13079,2.5 µg/mL
same,MIC,A. baumannii 9068,5 µg/mL
same,MIC,A. baumannii 906,2.5 µg/mL
same,MIC,S. epidermidis 888,2.5 µg/mL
same,MIC,S. epidermidis 9092,5 µg/mL
same,MIC,E. faecalis 901,5 µg/mL
same,MIC,S. epidermidis 6943,5 µg/mL
same,MIC,E. coli ATCC25922,10 µg/mL
same,MIC,K. pneumoniae 9126,5 µg/mL
same,MIC,P. aeruginosa 9042,5 µg/mL
same,MIC,P. aeruginosa 9014,2.5 µg/mL
same,MIC,P. aeruginosa ATCC 27853,5 µg/mL
same,MIC,E. coli ATCC35218,10 µg/mL
same,MIC,E. coli 2687,10 µg/mL
same,MIC,E. coli 2678,10 µg/mL
same,MIC,A. baumannii ATCC 19606,2.5 µg/mL
same,percent hRBC hemolysis,[3]; peptide 100 μg ml^–1,73.1%
same,MIC,S. aureus ATCC29213,5 µg/mL
same,MIC,E. faecium 898,2.5 µg/mL
same,MIC,S. aureus 1176,5 µg/mL
same,MIC,S. aureus 4188,5 µg/mL
same,MIC,S. aureus 9124,5 µg/mL
same,MIC,S. aureus ATCC 25923,5 µg/mL
same,MIC,E. faecalis ATCC 29212,10 µg/mL
CC[C@H](C)[C@H](NC(=O)[C@H](CCCNC(=N)N)NC(=O)[C@H](CCCCN)NC(=O)[C@@H](NC(=O)[C@@H](N)Cc1ccccc1)[C@@H](C)CC)C(=O)N[C@@H](C)C(=O)N[C@@H](CCCNC(=N)N)C(=O)N[C@@H](CC(C)C)C(=O)N[C@@H](CC(C)C)C(=O)N[C@@H](CCCNC(=N)N)C(=O)N[C@@H](CCCCN)C(=O)N[C@H](C(=O)N[C@@H](Cc1ccccc1)C(N)=O)[C@@H](C)CC [BmKn2-7] (H-FIKRIARLLRKIF-NH2),MIC,[1],10 µg/mL
same,MIC,A. baumannii 13012,5 µg/mL
same,MIC,A. baumannii 13079,2.5 µg/mL
same,MIC,A. baumannii 9068,5 µg/mL
same,MIC,A. baumannii 906,5 µg/mL
same,MIC,S. epidermidis 888,5 µg/mL
same,MIC,S. epidermidis 9092,5 µg/mL
same,MIC,E. faecalis 901,5 µg/mL
same,MIC,S. epidermidis 6943,5 µg/mL
same,MIC,E. coli ATCC25922,10 µg/mL
same,MIC,K. pneumoniae 9126,10 µg/mL
same,MIC,P. aeruginosa 9042,20 µg/mL
same,MIC,P. aeruginosa 9014,10 µg/mL
same,MIC,P. aeruginosa ATCC 27853,10 µg/mL
same,MIC,E. coli ATCC35218,10 µg/mL
same,MIC,E. coli 2687,10 µg/mL
same,MIC,E. coli 2678,20 µg/mL
same,MIC,A. baumannii ATCC 19606,5 µg/mL
same,percent hRBC hemolysis,[3]; peptide 25 μg ml^–1,6.9%
same,percent hRBC hemolysis,[3]; peptide 100 μg ml^–1,41.0%
same,MIC,S. aureus ATCC29213,5 µg/mL
same,MIC,E. faecium 898,5 µg/mL
same,MIC,S. aureus 1176,5 µg/mL
same,MIC,S. aureus 4188,5 µg/mL
same,MIC,S. aureus 9124,5 µg/mL
same,MIC,S. aureus ATCC 25923,5 µg/mL
same,MIC,E. faecalis ATCC 29212,5 µg/mL
CC[C@H](C)[C@H](NC(=O)[C@H](C)NC(=O)CNC(=O)[C@@H](NC(=O)[C@@H](N)Cc1ccccc1)[C@@H](C)CC)C(=O)N[C@@H](C)C(=O)N[C@@H](CCCNC(=N)N)C(=O)N[C@@H](CC(C)C)C(=O)N[C@@H](CC(C)C)C(=O)N[C@@H](CO)C(=O)N[C@@H](CCCCN)C(=O)N[C@H](C(=O)N[C@@H](Cc1ccccc1)C(N)=O)[C@@H](C)CC [BmKn2] (H-FIGAIARLLSKIF-NH2),MIC,[1],>80 µg/mL
same,MIC,A. baumannii 13012,10 µg/mL
same,MIC,A. baumannii 13079,10 µg/mL
same,MIC,A. baumannii 9068,10 µg/mL
same,MIC,A. baumannii 906,10 µg/mL
same,MIC,S. epidermidis 888,5 µg/mL
same,MIC,S. epidermidis 9092,5 µg/mL
same,MIC,E. faecalis 901,10 µg/mL
same,MIC,S. epidermidis 6943,5 µg/mL
same,MIC,E. coli ATCC25922,> 80 µg/mL
same,MIC,K. pneumoniae 9126,>80 µg/mL
same,MIC against A. baumannii,A. baumannii,5–10 μg ml^–1
same,MIC,P. aeruginosa 9042,>80 µg/mL
same,MIC,P. aeruginosa 9014,>80 µg/mL
same,MIC,P. aeruginosa ATCC 27853,>80 µg/mL
same,MIC,E. coli ATCC35218,>80 µg/mL
same,MIC,E. coli 2687,>80 µg/mL
same,MIC,E. coli 2678,>80 µg/mL
same,MIC,A. baumannii ATCC 19606,10 µg/mL
same,percent hRBC hemolysis,[3]; peptide 25 μg ml^–1,91.8%
same,MIC,S. aureus ATCC29213,10 µg/mL
same,MIC,E. faecium 898,10 µg/mL
same,MIC,S. aureus 1176,2.5 µg/mL
same,MIC,S. aureus 4188,5 µg/mL
same,MIC,S. aureus 9124,2.5 µg/mL
same,MIC,S. aureus ATCC 25923,5 µg/mL
same,MIC,E. faecalis ATCC 29212,10 µg/mL
